Data on 3 compounds can be found in patent US9670201B2, “Methyl- and trifluoromethyl-substituted pyrrolopyridine modulators of RORC2 and methods of use thereof” (Pfizer Inc., priority 2014, dated 2017).

Molecules are shown by their SMILES.

For this assay, the target named is RORC2 ligand binding domain (6-His-RORC2 LBD) (Homo sapiens (Human), UniProt P51449). The assay is described as follows: Co-activator recruitment by TR-FRET. Format: biochemical. The conditions noted are these: 6-His-RORC2 LBD / SRC1-2 coactivator peptide, Table 1. For orientation: Time-resolved FRET reads energy transfer from a long-lived donor to a nearby acceptor.
Chain of RORC2 ligand binding domain (6-His-RORC2 LBD) (P51449 269-508): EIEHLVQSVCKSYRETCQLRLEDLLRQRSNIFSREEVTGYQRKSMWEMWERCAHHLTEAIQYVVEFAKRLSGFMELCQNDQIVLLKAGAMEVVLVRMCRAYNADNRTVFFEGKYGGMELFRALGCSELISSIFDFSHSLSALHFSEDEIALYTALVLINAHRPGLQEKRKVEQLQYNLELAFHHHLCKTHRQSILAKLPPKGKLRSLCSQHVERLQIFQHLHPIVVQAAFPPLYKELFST
Regarding `Cn1cc(C2[C@@H]3CC[C@H]2CN(C(=O)C2CCCC2)C3)c2c(C(F)(F)F)c(NC(=O)c3cccc(C#N)c3)cnc21` (stereo partly drawn) [Example 79, 3-cyano-N-{3-((1R,5S,8r)-3-(cyclopentanecarbonyl)-3-azabicyclo[3.2.1]octan-8-yl]-1-methyl-4-(trifluoromethyl)-1H-pyrrolo[2,3-b]pyridin-5-yl}benzamide], the concentration for half-maximal inhibition (IC50) worked out at 39.1 nM.
With `Cc1ccc(C(=O)Nc2cnc3c(c([C@@H]4CCN(C(=O)C5CCCC5)C(C)(C)C4)cn3C)c2C)cc1C#N` [Example 59, (R)-3-cyano-N-(3-(1-(cyclopentanecarbonyl)-2,2-dimethylpiperidin-4-yl)-1,4-dimethyl-1H-pyrrolo[2,3-b]pyridin-5-yl)-4-methylbenzamide], the concentration for half-maximal inhibition (IC50) is 11.8 nM. This IC50 lies about 3.3-fold lower than the previous one.
For the compound `COc1ccc(C(=O)Nc2cnc3c(c(C4CCN(C(=O)C(C)C)CC4)cn3C)c2C(F)(F)F)cc1Cl` [Example 10, 3-chloro-N-(3-(1-isobutyrylpiperidin-4-yl)-1-methyl-4-(trifluoromethyl)-1H-pyrrolo[2,3-b]pyridin-5-yl)-4-methoxybenzamide], the IC50 worked out at 3.5 nM.

As usually defined, the IC50 is the concentration that inhibits the measured activity by half. Higher therefore signals weaker potency in that assay.
